Consider one compound from patent US12351652B2, “Hemagglutinin-binding peptide” (priority 2019, dated 2025).

The test system of the test is influenza virus A/Puerto Rico/8/34 (H1N1). The arrangement: species or system BALB/cA Jcl [SPF] mice. The following applies: mouse, in vivo, iv.

In turn, `CCC(CC)[C@H](NC(C)=O)[C@@H]1[C@H](O)[C@@H](C(=O)O)C[C@H]1N=C(N)N` [peramivir, reference compound] showed a survival rate of 20%.
